In US20180344726A1, “ABUSE RESISTANT TRANSDERMAL DELIVERY DEVICES AND COMPOSITIONS COMPRISING AN OPIOID AGONIST AND A NON-TRANSDERMALLY DELIVERED N-OXIDE DERIVATIVE OF AN OPIOID ANTAGONIST FOR THE TREATMENT OF PAIN” (priority 2015, published 2018):
Values joined by “and” are separate entries in the source; they are usually repeats but may differ in a detail not shown here. Equal values may be shown once. Read-outs that look alike come from different tables or passages of the source.

Conditions: +37° C.; for Mean concentration of Naloxone N-oxide in human plasma samples / Mean concentration of Naloxone N-oxide in human whole blood samples: mean of n=3; for Concentrations of Naloxone N-oxide in human plasma samples / Concentrations of Naloxone N-oxide in human whole blood samples: single replicates
Text: Analytical procedures followed were based on those outlined in the “Guideline on Bioanalytical Method Validation”, EMA, CHMP, EWP, July 2011 and “Reflection paper for laboratories that perform the analysis or evaluation of clinical trial samples, 28 Feb. 2012, EMA/INS/GCP/532137/2010” with reference to the “Guidance for Industry, Bioanalytical Method Validation” recommendations issued by the U.S. Department of Health and Human Services, Food and Drug Administration, Center for Drug Evaluation and Research (CDER), Center for Veterinary Medicine (CVM), May 2001, BP.
Control blank human plasma and blood containing K2EDTA as an anti-coagulant, was obtained from Clinical Trials Laboratory Service or BAS volunteers and was stored at nominally −20° C. and +4° C., respectively, when not in use. The mass spectrometer used was an Applied Biosystems AP15000 with the following settings:
All instrument control, data collection, peak area integration and storage was performed using Analyst (version 1.5.2). Peak areas were then imported into Watson LIMS (version 7.2.0.02) for regression and quantification. The mass spectrometer response (peak area ratio of analyte to internal standard) of each calibration standard was calculated by Watson LIMS and plotted against the nominal (prepared) concentration. A weighted (1/x^2) least squares linear regression analysis was used to calculate an equation of the calibration line.
Any concentrations below this level are reported as below the limit of quantification (BLQ). Samples with initial concentrations above the upper limit of quantification ([…]) were re-injected with a reduced injection volume (alongside QC High with reduced injection volume) and sample concentrations interpolated against a calibration curve injected with normal injection volume.

[1] = spiked with Naloxone-N-oxide 10 ng/mL, 0 minutes
[2] = spiked with Naloxone-N-oxide 10 ng/mL, 10 minutes
[3] = spiked with Naloxone-N-oxide 10 ng/mL, 20 minutes
[4] = spiked with Naloxone-N-oxide 10 ng/mL, 30 minutes
[5] = spiked with Naloxone-N-oxide 10 ng/mL, 45 minutes
[6] = spiked with Naloxone-N-oxide 10 ng/mL, 60 minutes
[7] = spiked with Naloxone-N-oxide 10 ng/mL, 120 minutes
[8] = spiked with Naloxone-N-oxide 50 ng/mL, 0 minutes
[9] = spiked with Naloxone-N-oxide 50 ng/mL, 10 minutes
[10] = spiked with Naloxone-N-oxide 50 ng/mL, 20 minutes
[11] = spiked with Naloxone-N-oxide 50 ng/mL, 30 minutes
[12] = spiked with Naloxone-N-oxide 50 ng/mL, 45 minutes
[13] = spiked with Naloxone-N-oxide 50 ng/mL, 60 minutes
[14] = spiked with Naloxone-N-oxide 50 ng/mL, 120 minutes
[15] = spiked with Naloxone-N-oxide 250 ng/mL, 0 minutes
[16] = spiked with Naloxone-N-oxide 250 ng/mL, 10 minutes
[17] = spiked with Naloxone-N-oxide 250 ng/mL, 20 minutes
[18] = spiked with Naloxone-N-oxide 250 ng/mL, 30 minutes
[19] = spiked with Naloxone-N-oxide 250 ng/mL, 45 minutes
[20] = spiked with Naloxone-N-oxide 250 ng/mL, 60 minutes
[21] = spiked with Naloxone-N-oxide 250 ng/mL, 120 minutes

C=CC[N+]1([O-])CC[C@]23c4c5ccc(O)c4O[C@H]2C(=O)CC[C@@]3(O)[C@H]1C5 (some centres unmarked) [Naloxone N-oxide]
Conversion of Naloxone-N-oxide to Naloxone in plasma (in words) (2 hour time course): small, but insignificant amount of conversion | Conversion to Naloxone in whole blood (in words) (2 hour time course): rapidly converts to Naloxone in whole blood | Mean concentration of Naloxone N-oxide in human plasma samples [1]: 10.0 ng/mL | Mean concentration of Naloxone N-oxide in human whole blood samples [1]: 7.45 ng/mL | Concentrations of Naloxone N-oxide in human plasma samples [1]: 9.93 ng/mL and 9.87 ng/mL and 10.2 ng/mL | Concentrations of Naloxone N-oxide in human whole blood samples [1]: 7.95 ng/mL and 7.69 ng/mL and 6.70 ng/mL | Mean concentration of Naloxone N-oxide in human plasma samples [2]: 10.2 ng/mL | Mean concentration of Naloxone N-oxide in human whole blood samples [2]: 6.02 ng/mL | Concentrations of Naloxone N-oxide in human plasma samples [2]: 9.61 ng/mL and 10.4 ng/mL and 10.7 ng/mL | Concentrations of Naloxone N-oxide in human whole blood samples [2]: 5.94 ng/mL and 6.11 ng/mL and 6.01 ng/mL | Mean concentration of Naloxone N-oxide in human plasma samples [3]: 10.3 ng/mL | Mean concentration of Naloxone N-oxide in human whole blood samples [3]: 4.53 ng/mL | Concentrations of Naloxone N-oxide in human plasma samples [3]: 10.6 ng/mL and 10.3 ng/mL and 9.93 ng/mL | Concentrations of Naloxone N-oxide in human whole blood samples [3]: 4.70 ng/mL and 4.15 ng/mL and 4.75 ng/mL | Mean concentration of Naloxone N-oxide in human plasma samples [4]: 9.96 ng/mL | Mean concentration of Naloxone N-oxide in human whole blood samples [4]: 3.13 ng/mL | Concentrations of Naloxone N-oxide in human plasma samples [4]: 9.37 ng/mL and 10.1 ng/mL and 10.4 ng/mL | Concentrations of Naloxone N-oxide in human whole blood samples [4]: 2.77 ng/mL and 3.14 ng/mL and 3.47 ng/mL | Mean concentration of Naloxone N-oxide in human plasma samples [5]: 10.4 ng/mL | Mean concentration of Naloxone N-oxide in human whole blood samples [5]: 2.15 ng/mL | Concentrations of Naloxone N-oxide in human plasma samples [5]: 10.7 ng/mL and 10.0 ng/mL and 10.4 ng/mL | Concentrations of Naloxone N-oxide in human whole blood samples [5]: 2.18 ng/mL and 2.27 ng/mL and 2.01 ng/mL | Mean concentration of Naloxone N-oxide in human plasma samples [6]: 10.3 ng/mL | Mean concentration of Naloxone N-oxide in human whole blood samples [6]: 1.87 ng/mL | Concentrations of Naloxone N-oxide in human plasma samples [6]: 10.3 ng/mL and 10.6 ng/mL and 10.1 ng/mL | Concentrations of Naloxone N-oxide in human whole blood samples [6]: 1.79 ng/mL and 1.81 ng/mL and 2.02 ng/mL | Mean concentration of Naloxone N-oxide in human plasma samples [7]: 10.3 ng/mL | Mean concentration of Naloxone N-oxide in human whole blood samples [7]: 1.51 ng/mL | Concentrations of Naloxone N-oxide in human plasma samples [7]: 10.4 ng/mL (2×) and 10.1 ng/mL | Concentrations of Naloxone N-oxide in human whole blood samples [7]: 1.55 ng/mL and 1.57 ng/mL and 1.41 ng/mL | Mean concentration of Naloxone N-oxide in human plasma samples [8]: 44.9 ng/mL | Mean concentration of Naloxone N-oxide in human whole blood samples [8]: 45.4 ng/mL | Concentrations of Naloxone N-oxide in human plasma samples [8]: 48.5 ng/mL and 45.6 ng/mL and 40.5 ng/mL | Concentrations of Naloxone N-oxide in human whole blood samples [8]: 48.9 ng/mL and 41.3 ng/mL and 46.0 ng/mL | Mean concentration of Naloxone N-oxide in human plasma samples [9]: 46.0 ng/mL | Mean concentration of Naloxone N-oxide in human whole blood samples [9]: 25.9 ng/mL | Concentrations of Naloxone N-oxide in human plasma samples [9]: 43.4 ng/mL and 48.7 ng/mL and 45.8 ng/mL | Concentrations of Naloxone N-oxide in human whole blood samples [9]: 26.0 ng/mL and 25.0 ng/mL and 26.8 ng/mL | Mean concentration of Naloxone N-oxide in human plasma samples [10]: 48.4 ng/mL | Mean concentration of Naloxone N-oxide in human whole blood samples [10]: 20.4 ng/mL | Concentrations of Naloxone N-oxide in human plasma samples [10]: 50.1 ng/mL and 47.1 ng/mL and 48.1 ng/mL | Concentrations of Naloxone N-oxide in human whole blood samples [10]: 20.3 ng/mL and 21.1 ng/mL and 19.9 ng/mL | Mean concentration of Naloxone N-oxide in human plasma samples [11]: 46.3 ng/mL | Mean concentration of Naloxone N-oxide in human whole blood samples [11]: 16.0 ng/mL | Concentrations of Naloxone N-oxide in human plasma samples [11]: 46.9 ng/mL and 44.1 ng/mL and 47.9 ng/mL | Concentrations of Naloxone N-oxide in human whole blood samples [11]: 15.9 ng/mL and 15.2 ng/mL and 16.9 ng/mL | Mean concentration of Naloxone N-oxide in human plasma samples [12]: 47.4 ng/mL | Mean concentration of Naloxone N-oxide in human whole blood samples [12]: 14.4 ng/mL | Concentrations of Naloxone N-oxide in human plasma samples [12]: 47.6 ng/mL and 49.1 ng/mL and 45.4 ng/mL | Concentrations of Naloxone N-oxide in human whole blood samples [12]: 14.1 ng/mL (2×) and 15.1 ng/mL | Mean concentration of Naloxone N-oxide in human plasma samples [13]: 48.0 ng/mL | Mean concentration of Naloxone N-oxide in human whole blood samples [13]: 10.4 ng/mL | Concentrations of Naloxone N-oxide in human plasma samples [13]: 50.0 ng/mL and 46.0 ng/mL and 48.1 ng/mL | Concentrations of Naloxone N-oxide in human whole blood samples [13]: 10.7 ng/mL and 10.6 ng/mL and 10.0 ng/mL | Mean concentration of Naloxone N-oxide in human plasma samples [14]: 46.1 ng/mL | Mean concentration of Naloxone N-oxide in human whole blood samples [14]: 4.24 ng/mL | Concentrations of Naloxone N-oxide in human plasma samples [14]: 47.6 ng/mL and 43.9 ng/mL and 46.8 ng/mL | Concentrations of Naloxone N-oxide in human whole blood samples [14]: 3.99 ng/mL and 4.51 ng/mL and 4.22 ng/mL | Mean concentration of Naloxone N-oxide in human plasma samples [15]: 233 ng/mL | Mean concentration of Naloxone N-oxide in human whole blood samples [15]: 255 ng/mL | Concentrations of Naloxone N-oxide in human plasma samples [15]: 236 ng/mL and 233 ng/mL and 229 ng/mL | Concentrations of Naloxone N-oxide in human whole blood samples [15]: 245 ng/mL and 254 ng/mL and 265 ng/mL | Mean concentration of Naloxone N-oxide in human plasma samples [16]: 225 ng/mL | Mean concentration of Naloxone N-oxide in human whole blood samples [16]: 141 ng/mL | Concentrations of Naloxone N-oxide in human plasma samples [16]: 218 ng/mL and 234 ng/mL and 223 ng/mL | Concentrations of Naloxone N-oxide in human whole blood samples [16]: 135 ng/mL and 143 ng/mL and 144 ng/mL | Mean concentration of Naloxone N-oxide in human plasma samples [17]: 232 ng/mL | Mean concentration of Naloxone N-oxide in human whole blood samples [17]: 111 ng/mL | Concentrations of Naloxone N-oxide in human plasma samples [17]: 228 ng/mL and 241 ng/mL and 226 ng/mL | Concentrations of Naloxone N-oxide in human whole blood samples [17]: 107 ng/mL and 111 ng/mL and 115 ng/mL | Mean concentration of Naloxone N-oxide in human plasma samples [18]: 229 ng/mL | Mean concentration of Naloxone N-oxide in human whole blood samples [18]: 97.6 ng/mL | Concentrations of Naloxone N-oxide in human plasma samples [18]: 231 ng/mL and 229 ng/mL and 226 ng/mL | Concentrations of Naloxone N-oxide in human whole blood samples [18]: 99.0 ng/mL and 96.8 ng/mL and 97.1 ng/mL | Mean concentration of Naloxone N-oxide in human plasma samples [19]: 228 ng/mL | Mean concentration of Naloxone N-oxide in human whole blood samples [19]: 81.4 ng/mL | Concentrations of Naloxone N-oxide in human plasma samples [19]: 225 ng/mL and 228 ng/mL and 230 ng/mL | Concentrations of Naloxone N-oxide in human whole blood samples [19]: 78.2 ng/mL and 80.8 ng/mL and 85.3 ng/mL | Mean concentration of Naloxone N-oxide in human plasma samples [20]: 231 ng/mL | Mean concentration of Naloxone N-oxide in human whole blood samples [20]: 69.0 ng/mL | Concentrations of Naloxone N-oxide in human plasma samples [20]: 242 ng/mL and 229 ng/mL and 221 ng/mL | Concentrations of Naloxone N-oxide in human whole blood samples [20]: 73.9 ng/mL and 65.5 ng/mL and 67.7 ng/mL | Mean concentration of Naloxone N-oxide in human plasma samples [21]: 225 ng/mL | Mean concentration of Naloxone N-oxide in human whole blood samples [21]: 49.3 ng/mL | Concentrations of Naloxone N-oxide in human plasma samples [21]: 239 ng/mL and 226 ng/mL and 211 ng/mL | Concentrations of Naloxone N-oxide in human whole blood samples [21]: 46.8 ng/mL and 52.8 ng/mL and 48.3 ng/mL
